± gives the standard deviation of the averaged measurements.
What was measured:
Test in all cases: LOEC (log10 uM (lowest observed effect concentration))
[1] = compound: C=CC(=O)OCCC(F)(F)C(F)(F)C(F)(F)C(F)(F)F [2-(Perfluorobutyl)ethyl acrylate]
Description: (§1)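 BioMAP Diversity Plus panel in human primary cell co-cultures, 4 concentrations in duplicate blinded samples. Responses are log10 fold change versus DMSO control, processed with tcpl v2.1.0. A hit is called when responses at any concentration exceed the cutoff (the larger of 3*bmad or log10(1.2)); the lowest observed effect concentration (modl_ga, log10 uM) is reported for hits.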

[2] = compound: Cn1cnc([N+](=O)[O-])c1Sc1ncnc2[nH]cnc12 [Azathioprine]
Description: as §1

[3] = compound: O=C(O)C(F)(F)C(F)(F)C(F)(F)C(F)(F)C(F)(F)C(F)(F)C(F)(F)C(F)(F)Cl [9-Chloro-perfluorononanoic acid]
Description: as §1

[4] = compound: O=C(O)C(F)(F)C(F)(F)C(F)(F)C(F)(F)C(F)(F)C(F)(F)C(F)(F)C(F)(F)C(F)(F)C(F)(F)C(F)(F)C(F)(F)F [Perfluorotridecanoic acid]
Description: as §1

[5] = compound: O=C(O)C(F)(F)OC(F)(F)C(F)(F)OC(F)(F)C(F)(F)C(F)(F)C(F)(F)F [Perfluoro-3,6-dioxadecanoic acid]
Description: as §1

Row | Test System | LOEC (log10 uM) [3] | other results
1 | 3C Eselectin down |  | LOEC (log10 uM) [1]: 1.78
2 | SAg Eselectin down |  | LOEC (log10 uM) [1]: 1.78; LOEC (log10 uM) [2]: 1.48
3 | KF3CT MCP1 down | 1.78 | 
4 | BF4T MMP1 down | 1.78 | 
5 | 4H VEGFRII down |  | LOEC (log10 uM) [4]: 1.48
6 | BF4T MMP3 up |  | LOEC (log10 uM) [5]: 1.3
7 | MyoF CollagenIII down | 1.3 | LOEC (log10 uM) [5]: 1.78
8 | MyoF PAI1 down | 1.78 | 
9 | MyoF TIMP1 up |  | LOEC (log10 uM) [5]: 1.3
10 | BF4T PAI1 down | 1.78 | 
11 | hDFCGF MCP1 down | 1.78 | 
12 | SAg MCP1 down | 1.78 | LOEC (log10 uM) [1]: 1.78
13 | BE3C ICAM1 down | 1.78 | 
14 | BF4T SRB down | 1.78 | 
15 | LPS Thrombomodulin up | 1.78 | 
16 | BT xIL2 down |  | LOEC (log10 uM) [1]: 1.78; LOEC (log10 uM) [2]: 1.48
17 | LPS MCSF up | 1.78 | 
18 | BE3C tPA down | 1.78 | LOEC (log10 uM) [5]: 1.78; LOEC (log10 uM) [2]: 1.22 ± 0.37
19 | LPS IL8 up | 1.54 ± 0.34 | 
20 | BF4T uPA down | 1.78 | 
21 | BF4T VCAM1 down | 1.3 | LOEC (log10 uM) [2]: 1.48
22 | IMphg MCP1 down | 1.78 | 
23 | BE3C ITAC up |  | LOEC (log10 uM) [5]: 0.845
24 | hDFCGF MMP1 up |  | LOEC (log10 uM) [1]: 1.54 ± 0.34
25 | BF4T ICAM1 down | 1.78 | 
26 | MyoF ACTA1 down | 1.78 | 

Row | Test System | LOEC (log10 uM) [3] | other results
27 | CASM3C SAA up |  | LOEC (log10 uM) [4]: 0.477 ± 0.68
28 | CASM3C Proliferation down |  | LOEC (log10 uM) [2]: 1.48
29 | LPS MCP1 down | 1.78 | 
30 | hDFCGF SRB down | 1.78 | 
31 | BF4T tPA down | 1.3 | 
32 | 3C MCP1 down | 1.78 | 
33 | BT xIL6 down |  | LOEC (log10 uM) [1]: 1.78; LOEC (log10 uM) [2]: 1.48
34 | BT xIL17A down |  | LOEC (log10 uM) [1]: 1.54 ± 0.34; LOEC (log10 uM) [2]: 1.48
35 | 3C SRB down | 1.78 | LOEC (log10 uM) [5]: 1.78; LOEC (log10 uM) [2]: 1.48
36 | 3C Eselectin up | 1.78 | 
37 | KF3CT IP10 down | 1.78 | LOEC (log10 uM) [5]: 1.78
38 | BT PBMCCytotoxicity up | 1.78 | LOEC (log10 uM) [5]: 1.78
39 | BF4T Keratin818 down | 1.78 | 
40 | BF4T MMP9 down | 1.78 | 
41 | LPS PGE2 down | 1.78 | LOEC (log10 uM) [5]: 1.3
42 | KF3CT IL1a down | 1.78 | LOEC (log10 uM) [4]: 1.22 ± 0.37
43 | IMphg MCSF down |  | LOEC (log10 uM) [2]: 1.48
44 | BT xTNFa down |  | LOEC (log10 uM) [1]: 1.3; LOEC (log10 uM) [2]: 0.716 ± 0.34
45 | IMphg CD69 down | 1.78 | LOEC (log10 uM) [5]: 1.78
46 | hDFCGF MMP1 down | 0.845 | 
47 | BE3C Keratin818 down | 1.78 | 
48 | IMphg SRB down | 1.78 | 
49 | LPS SRB down | 1.78 | 
50 | 3C Thrombomodulin down |  | LOEC (log10 uM) [1]: 1.54 ± 0.34
51 | BF4T MCP1 down | 0.801 ± 0.71 | LOEC (log10 uM) [5]: 0.573 ± 0.39
52 | BE3C uPAR down | 1.78 | 

Row | Test System | LOEC (log10 uM) [3] | other results
53 | KF3CT ICAM1 down | 1.78 | 
54 | LPS TNFa down |  | LOEC (log10 uM) [2]: 1.48
55 | SAg CD38 down | 1.78 | LOEC (log10 uM) [1]: 1.78
56 | BT PBMCCytotoxicity down |  | LOEC (log10 uM) [1]: 1.54 ± 0.34
57 | 4H SRB down | 1.78 | LOEC (log10 uM) [4]: 1.22 ± 0.37
58 | hDFCGF EGFR down |  | LOEC (log10 uM) [5]: 1.78
59 | MyoF MMP1 up | 1.78 | 
60 | BF4T IL1a down | 1.78 | 
61 | MyoF SRB down | 1.78 | 
62 | 3C TissueFactor down |  | LOEC (log10 uM) [1]: 1.54 ± 0.34
63 | MyoF TIMP1 down | 1.78 | 
64 | BT xIL17F down |  | LOEC (log10 uM) [1]: 1.3; LOEC (log10 uM) [2]: 1.48
65 | KF3CT SRB down | 1.78 | 
66 | BT sIgG down |  | LOEC (log10 uM) [1]: 1.78; LOEC (log10 uM) [2]: -0.0458
67 | MyoF VCAM1 down | 1.54 ± 0.34 | 
68 | MyoF CollagenI down | 1.3 | LOEC (log10 uM) [5]: 1.78; LOEC (log10 uM) [4]: 1.48
69 | KF3CT TIMP2 down | 1.78 | 
70 | IMphg CD40 down | 1.78 | LOEC (log10 uM) [5]: 1.78; LOEC (log10 uM) [4]: 1.48; LOEC (log10 uM) [2]: 1.48
71 | BF4T IL8 up |  | LOEC (log10 uM) [5]: 1.07 ± 0.32
72 | KF3CT uPA down | 1.78 | 
73 | SAg CD69 down | 1.78 | LOEC (log10 uM) [1]: 1.78; LOEC (log10 uM) [2]: 1.48
74 | SAg IL8 down | 1.78 | LOEC (log10 uM) [1]: 1.78; LOEC (log10 uM) [2]: 1.48
75 | KF3CT MIG down | 1.78 | 
76 | BT Bcell Proliferation up | 1.78 | 
77 | 3C IL8 down |  | LOEC (log10 uM) [4]: 1.22 ± 0.37

Source: the supplement of paper PMC10331698
